Broadly, the IC50 is the concentration that inhibits the measured activity by half.

Results on 19 compounds are retold here after ChEMBL document CHEMBL4406842, “Synthesis and in vitro biological evaluation of novel derivatives of Flexicaulin A condensation with amino acid trifluoroacetate” (Eur J Med Chem, 2019).

One series concerns TE-1. The experiment in a line: Antiproliferative activity against human TE1 cells assessed as reduction in cell viability incubated for 72 hrs by SRB assay. The format is functional, cell-based. The conditions noted are these: TE-1, 72 h. (In SRB staining, fixed cells bind dye roughly in proportion to their protein.)
A further series relates to MCF7. Kind of series: Antiproliferative activity against human MCF7 cells assessed as reduction in cell viability incubated for 72 hrs by SRB assay. The format is functional, cell-based. Particulars: MCF7, 72 h.
For a further series, the system named is A549. Kind of series: Antiproliferative activity against human A549 cells assessed as reduction in cell viability incubated for 72 hrs by SRB assay. Type of series: functional, cell-based. Particulars: A549, 72 h.
A further series concerns MGC-803. The experiment in a line: Antiproliferative activity against human MGC803 cells assessed as reduction in cell viability incubated for 72 hrs by SRB assay. The format is functional, cell-based. Particulars: MGC-803, 72 h.
Series [1] can be described thus: Solubility of compound in water. The format is physicochemical. The conditions noted are these: buffer.

`C=C1C(=O)[C@]23[C@H](OC(=O)CN(C)C(=O)OC(C)(C)C)[C@H]1C[C@H](O)[C@H]2[C@]1(COC(C)=O)CCCC(C)(C)[C@H]1C[C@H]3OC`: the IC50 came to 1450 nM with TE-1, 3.08 µM with MCF7, 5.46 µM in the series with A549 and 3.94 µM with MGC-803. Besides, in series [1], the solubility entry is “Insoluble”.
Consider `C=C1C(=O)[C@]23[C@H](OC(=O)[C@H](C)N(C)C(=O)OC(C)(C)C)[C@H]1C[C@H](O)[C@H]2[C@]1(COC(C)=O)CCCC(C)(C)[C@H]1C[C@H]3OC`, for which the IC50 with TE-1 turned out to be 1040 nM; in the series with MCF7, 2.05 µM; with A549, 5.41 µM; with MGC-803 it was 3.29 µM. For the same compound, in series [1], the solubility result is listed as “Insoluble”.
Regarding `C=C1C(=O)[C@]23[C@H](OC(=O)CCCCNC(=O)OC(C)(C)C)[C@H]1C[C@H](O)[C@H]2[C@]1(COC(C)=O)CCCC(C)(C)[C@H]1C[C@H]3OC`, the IC50 with TE-1 turned out to be 1190 nM; in the series with MCF7 it was 1.56 µM; in the series on A549, 5.64 µM; in the series with MGC-803 it was 3.06 µM. Moreover, the solubility entry in series [1] is “Insoluble”.
For `C=C1C(=O)[C@]23[C@H](OC(=O)[C@@H](N)CCCN)[C@H]1C[C@H](O)[C@H]2[C@]1(COC(C)=O)CCCC(C)(C)[C@H]1C[C@H]3OC.O=C(O)C(F)(F)F.O=C(O)C(F)(F)F`, the IC50 in the series with TE-1 was 2710 nM; in the series with MCF7, 6.55 µM; in the series on A549 it was 8.04 µM; in the series on MGC-803 it was 5.28 µM. Moreover, the solubility entry in series [1] was “Soluble”.
On to `C=C1C(=O)[C@]23[C@H](OC(=O)[C@@H](NC(=O)OC(C)(C)C)C(C)C)[C@H]1C[C@H](O)[C@H]2[C@]1(COC(C)=O)CCCC(C)(C)[C@H]1C[C@H]3OC`, for which the IC50 is 1680 nM with TE-1, 2.73 µM in the series with MCF7, 3.94 µM in the series on A549 and 2.88 µM in the series with MGC-803. The solubility result in series [1] is recorded as “Insoluble”.
The like results for `C=C1C(=O)[C@@]23[C@H](O)C[C@@H]4C(C)(C)CCC[C@@]4(COC(C)=O)[C@@H]2[C@@H](O)C[C@@H]1[C@H]3O` [FLEXICANLIN A] were, in that order, 5070 nM, 5.45 µM, 6.77 µM, 9.94 µM and “Insoluble”.
On to `C=C1C(=O)[C@]23[C@H](OC(=O)[C@H](C)NC)[C@H]1C[C@H](O)[C@H]2[C@]1(COC(C)=O)CCCC(C)(C)[C@H]1C[C@H]3OC.O=C(O)C(F)(F)F`, for which the IC50 with TE-1 was found to be 3320 nM; with MCF7, 5.03 µM; in the series with A549 it was 2.79 µM; in the series with MGC-803, 6.34 µM. In series [1], the solubility entry is recorded as “Soluble”.
Take `C=C1C(=O)[C@]23[C@H](OC(=O)[C@@H](N)C(C)C)[C@H]1C[C@H](O)[C@H]2[C@]1(COC(C)=O)CCCC(C)(C)[C@H]1C[C@H]3OC.O=C(O)C(F)(F)F`: the IC50 came to 1970 nM in the series with TE-1, 1.27 µM with MCF7, 2.67 µM with A549 and 0.99 µM with MGC-803. In series [1], the solubility result is reported as “Soluble”.
The like results for `C=C1C(=O)[C@]23[C@H](OC(=O)CCCCN)[C@H]1C[C@H](O)[C@H]2[C@]1(COC(C)=O)CCCC(C)(C)[C@H]1C[C@H]3OC.O=C(O)C(F)(F)F` were, in that order, 3160 nM, 7.89 µM, 1.62 µM, 7.15 µM and “Soluble”.
Take `C=C1C(=O)[C@]23[C@H](OC(=O)[C@H](CCC)NC(=O)OC(C)(C)C)[C@H]1C[C@H](O)[C@H]2[C@]1(COC(C)=O)CCCC(C)(C)[C@H]1C[C@H]3OC`: the IC50 in the series with TE-1 was 1820 nM; in the series on MCF7, 2.59 µM; in the series on A549 it was 6.81 µM; with MGC-803, 4.93 µM. Further, in series [1], the solubility entry is “Insoluble”.
As to `C=C1C(=O)[C@]23[C@H](OC(=O)[C@@H](N)CCCC)[C@H]1C[C@H](O)[C@H]2[C@]1(COC(C)=O)CCCC(C)(C)[C@H]1C[C@H]3OC.O=C(O)C(F)(F)F`, the IC50 with TE-1 came out at 2640 nM; with MCF7, 2.51 µM; with A549 it was 1.54 µM; in the series with MGC-803 it was 3.22 µM. The solubility result in series [1] is on record as “Soluble”.
The like results for `C=C1C(=O)[C@]23[C@H](OC(=O)[C@H](CCCNC(=O)OC(C)(C)C)NC(=O)OC(C)(C)C)[C@H]1C[C@H](O)[C@H]2[C@]1(COC(C)=O)CCCC(C)(C)[C@H]1C[C@H]3OC` were, in that order, 1390 nM, 2.15 µM, 2.99 µM, 3.33 µM and “Insoluble”.
For the compound `C=C1C(=O)[C@]23[C@H](OC(=O)[C@@H](NC)C(C)C)[C@H]1C[C@H](O)[C@H]2[C@]1(COC(C)=O)CCCC(C)(C)[C@H]1C[C@H]3OC.O=C(O)C(F)(F)F`, the IC50 in the series with TE-1 was 1160 nM; with MCF7, 3.2 µM; in the series on A549, 1.89 µM; in the series on MGC-803 it was 1.64 µM. Besides, the solubility entry in series [1] is “Soluble”.
For the compound `C=C1C(=O)[C@]23[C@H](OC(=O)CCCCCN)[C@H]1C[C@H](O)[C@H]2[C@]1(COC(C)=O)CCCC(C)(C)[C@H]1C[C@H]3OC.O=C(O)C(F)(F)F`, the IC50 turned out to be 5360 nM in the series with TE-1, 3.68 µM with MCF7, 11.4 µM in the series on A549 and 5.14 µM with MGC-803. In addition, in series [1], the solubility entry was “Soluble”.
As to `C=C1C(=O)[C@]23[C@H](OC(=O)[C@@H](N)c4ccccc4)[C@H]1C[C@H](O)[C@H]2[C@]1(COC(C)=O)CCCC(C)(C)[C@H]1C[C@H]3OC.O=C(O)C(F)(F)F`, the IC50 was found to be 920 nM in the series with TE-1, 1.11 µM in the series on MCF7, 1.68 µM in the series on A549 and 1.66 µM in the series on MGC-803. In addition, in series [1], the solubility entry is “Soluble”.
In the case of `C=C1C(=O)[C@]23[C@H](OC(=O)[C@@H](N)CCc4ccccc4)[C@H]1C[C@H](O)[C@H]2[C@]1(COC(C)=O)CCCC(C)(C)[C@H]1C[C@H]3OC.O=C(O)C(F)(F)F`, the IC50 in the series with TE-1 is 2980 nM; with MCF7, 1.81 µM; in the series with A549 it was 3.35 µM; in the series on MGC-803, 1.06 µM. For the same compound, the solubility result in series [1] is on record as “Soluble”.
With `C=C1C(=O)[C@]23[C@H](OC(=O)[C@@H]4CCCN4C(=O)OC(C)(C)C)[C@H]1C[C@H](O)[C@H]2[C@]1(COC(C)=O)CCCC(C)(C)[C@H]1C[C@H]3OC`, the IC50 came out at 2780 nM with TE-1, 3.7 µM with MCF7, 5.9 µM with A549 and 2.81 µM with MGC-803. In addition, the solubility entry in series [1] was “Insoluble”.
For `C=C1C(=O)[C@]23[C@H](OC(=O)[C@@H](N)CCC)[C@H]1C[C@H](O)[C@H]2[C@]1(COC(C)=O)CCCC(C)(C)[C@H]1C[C@H]3OC.O=C(O)C(F)(F)F`, the IC50 came to 1720 nM in the series with TE-1, 4.57 µM in the series with MCF7, 1.64 µM in the series on A549 and 4.94 µM with MGC-803. The solubility result in series [1] is given as “Soluble”.
Take `C=C1C(=O)[C@]23[C@H](OC(=O)[C@H](C(C)C)N(C)C(=O)OC(C)(C)C)[C@H]1C[C@H](O)[C@H]2[C@]1(COC(C)=O)CCCC(C)(C)[C@H]1C[C@H]3OC`: the IC50 in the series on TE-1 was 5410 nM; with MCF7, 7.1 µM; in the series on A549 it was 9.5 µM; in the series on MGC-803, 5.47 µM. Also, in series [1], the solubility result was “Insoluble”.
